Experimental data: PubChem BioAssay (NCI)
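96-well plates; 48 h exposure; 5 concentrations. Endpoints by linear interpolation between flanking doses. Not reached: highest tested concentration assigned. At the GI50, growth is halved. TGI marks complete inhibition of growth.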

Key:
Test in all cases: growth of human tumour cells (NCI), 48 h
NCI-H226 lung = tested on: NCI-H226 lung
SK-MEL-5 melanoma = tested on: SK-MEL-5 melanoma
786-0 renal = tested on: 786-0 renal
HCT-116 colon = tested on: HCT-116 colon
KM12 colon = tested on: KM12 colon
NCI-H460 lung = tested on: NCI-H460 lung
EKVX NSCLC = tested on: EKVX NSCLC
SNB-75 CNS = tested on: SNB-75 CNS
CCRF-CEM leukemia = tested on: CCRF-CEM leukemia
SW-620 colon = tested on: SW-620 colon
OVCAR-3 ovarian = tested on: OVCAR-3 ovarian
UO-31 renal = tested on: UO-31 renal
IGROV1 ovarian = tested on: IGROV1 ovarian
T-47D breast = tested on: T-47D breast
SR leukemia = tested on: SR leukemia
CAKI-1 renal = tested on: CAKI-1 renal
A498 renal = tested on: A498 renal
MDA-MB-435 = tested on: MDA-MB-435
U251 CNS = tested on: U251 CNS
OVCAR-4 ovarian = tested on: OVCAR-4 ovarian
BT-549 breast = tested on: BT-549 breast
MDA-MB-468 breast = tested on: MDA-MB-468 breast
MDA-MB-231 breast = tested on: MDA-MB-231 breast
M14 melanoma = tested on: M14 melanoma
SN12C renal = tested on: SN12C renal
MOLT-4 leukemia = tested on: MOLT-4 leukemia
HS 578T breast = tested on: HS 578T breast
NCI-H23 lung = tested on: NCI-H23 lung
ACHN renal = tested on: ACHN renal
NCI/ADR-RES ovarian = tested on: NCI/ADR-RES ovarian
RXF 393 renal = tested on: RXF 393 renal
COLO 205 colon = tested on: COLO 205 colon
HOP-62 NSCLC = tested on: HOP-62 NSCLC
MALME-3M melanoma = tested on: MALME-3M melanoma
HOP-92 NSCLC = tested on: HOP-92 NSCLC
NCI-H522 lung = tested on: NCI-H522 lung
SNB-19 CNS = tested on: SNB-19 CNS
OVCAR-8 ovarian = tested on: OVCAR-8 ovarian
SK-MEL-28 melanoma = tested on: SK-MEL-28 melanoma
SK-MEL-2 melanoma = tested on: SK-MEL-2 melanoma
UACC-257 melanoma = tested on: UACC-257 melanoma
SF-539 CNS = tested on: SF-539 CNS
PC-3 prostate = tested on: PC-3 prostate
DU-145 prostate = tested on: DU-145 prostate
TK-10 renal = tested on: TK-10 renal
HL-60(TB) leukemia = tested on: HL-60(TB) leukemia
K-562 leukemia = tested on: K-562 leukemia
SK-OV-3 ovarian = tested on: SK-OV-3 ovarian
LOX IMVI melanoma = tested on: LOX IMVI melanoma
SF-295 CNS = tested on: SF-295 CNS
HT29 colon = tested on: HT29 colon
UACC-62 melanoma = tested on: UACC-62 melanoma
HCC-2998 colon = tested on: HCC-2998 colon
A549 NSCLC = tested on: A549 NSCLC
HCT-15 colon = tested on: HCT-15 colon
SF-268 CNS = tested on: SF-268 CNS
OVCAR-5 ovarian = tested on: OVCAR-5 ovarian
MCF7 breast = tested on: MCF7 breast

CC(=O)Oc1ccccc1C(=O)[Se]C(=NC(C)C)NC(C)C
GI50 (NCI-H226 lung): 1840 nM | TGI (NCI-H226 lung): 5700 nM | GI50 (SK-MEL-5 melanoma): 1830 nM | TGI (SK-MEL-5 melanoma): 3510 nM | GI50 (786-0 renal): 1740 nM | TGI (786-0 renal): 3210 nM | GI50 (HCT-116 colon): 1600 nM | TGI (HCT-116 colon): 3140 nM | GI50 (KM12 colon): 1900 nM | TGI (KM12 colon): 3860 nM | GI50 (NCI-H460 lung): 815 nM | TGI (NCI-H460 lung): 4390 nM | GI50 (EKVX NSCLC): 1670 nM | TGI (EKVX NSCLC): 3160 nM | GI50 (SNB-75 CNS): 1350 nM | TGI (SNB-75 CNS): 2660 nM | GI50 (CCRF-CEM leukemia): 3170 nM | TGI (CCRF-CEM leukemia): > 100000 nM | GI50 (SW-620 colon): 1920 nM | TGI (SW-620 colon): 4110 nM | GI50 (OVCAR-3 ovarian): 1900 nM | TGI (OVCAR-3 ovarian): 3560 nM | GI50 (UO-31 renal): 1680 nM | TGI (UO-31 renal): 3050 nM | GI50 (IGROV1 ovarian): 1720 nM | TGI (IGROV1 ovarian): 3230 nM | GI50 (T-47D breast): 2200 nM | TGI (T-47D breast): 5260 nM | GI50 (SR leukemia): 2110 nM | TGI (SR leukemia): 5440 nM | GI50 (CAKI-1 renal): 1680 nM | TGI (CAKI-1 renal): 3050 nM | GI50 (A498 renal): 3340 nM | TGI (A498 renal): 20600 nM | GI50 (MDA-MB-435): 1730 nM | TGI (MDA-MB-435): 3240 nM | GI50 (U251 CNS): 1530 nM | TGI (U251 CNS): 3200 nM | GI50 (OVCAR-4 ovarian): 1720 nM | TGI (OVCAR-4 ovarian): 3130 nM | GI50 (BT-549 breast): 1520 nM | TGI (BT-549 breast): 2880 nM | GI50 (MDA-MB-468 breast): 1750 nM | TGI (MDA-MB-468 breast): 3480 nM | GI50 (MDA-MB-231 breast): 2160 nM | TGI (MDA-MB-231 breast): 4960 nM | GI50 (M14 melanoma): 1840 nM | TGI (M14 melanoma): 3370 nM | GI50 (SN12C renal): 1720 nM | TGI (SN12C renal): 3160 nM | GI50 (MOLT-4 leukemia): 2350 nM | TGI (MOLT-4 leukemia): 6150 nM | GI50 (HS 578T breast): 2400 nM | TGI (HS 578T breast): 9150 nM | GI50 (NCI-H23 lung): 1940 nM | TGI (NCI-H23 lung): 4150 nM | GI50 (ACHN renal): 1760 nM | TGI (ACHN renal): 3160 nM | GI50 (NCI/ADR-RES ovarian): 2220 nM | TGI (NCI/ADR-RES ovarian): 4980 nM | GI50 (RXF 393 renal): 1720 nM | TGI (RXF 393 renal): 3170 nM | GI50 (COLO 205 colon): 2350 nM | TGI (COLO 205 colon): 5060 nM | GI50 (HOP-62 NSCLC): 777 nM | TGI (HOP-62 NSCLC): 2400 nM | GI50 (MALME-3M melanoma): 1860 nM | TGI (MALME-3M melanoma): 3450 nM | GI50 (HOP-92 NSCLC): 1910 nM | TGI (HOP-92 NSCLC): 4320 nM | GI50 (NCI-H522 lung): 1690 nM | TGI (NCI-H522 lung): 3320 nM | GI50 (SNB-19 CNS): 1090 nM | TGI (SNB-19 CNS): 2370 nM | GI50 (OVCAR-8 ovarian): 1870 nM | TGI (OVCAR-8 ovarian): 3580 nM | GI50 (SK-MEL-28 melanoma): 1790 nM | TGI (SK-MEL-28 melanoma): 3270 nM | GI50 (SK-MEL-2 melanoma): 1970 nM | TGI (SK-MEL-2 melanoma): 4010 nM | GI50 (UACC-257 melanoma): 1960 nM | TGI (UACC-257 melanoma): 3750 nM | GI50 (SF-539 CNS): 1750 nM | TGI (SF-539 CNS): 3150 nM | GI50 (PC-3 prostate): 1700 nM | TGI (PC-3 prostate): 3610 nM | GI50 (DU-145 prostate): 1940 nM | TGI (DU-145 prostate): 3590 nM | GI50 (TK-10 renal): 1630 nM | TGI (TK-10 renal): 3070 nM | GI50 (HL-60(TB) leukemia): 2180 nM | TGI (HL-60(TB) leukemia): 5700 nM | GI50 (K-562 leukemia): 2840 nM | TGI (K-562 leukemia): 9190 nM | GI50 (SK-OV-3 ovarian): 1810 nM | TGI (SK-OV-3 ovarian): 3330 nM | GI50 (LOX IMVI melanoma): 1750 nM | TGI (LOX IMVI melanoma): 3420 nM | GI50 (SF-295 CNS): 369 nM | TGI (SF-295 CNS): 1630 nM | GI50 (HT29 colon): 2310 nM | TGI (HT29 colon): 5840 nM | GI50 (UACC-62 melanoma): 1940 nM | TGI (UACC-62 melanoma): 4150 nM | GI50 (HCC-2998 colon): 1860 nM | TGI (HCC-2998 colon): 3430 nM | GI50 (A549 NSCLC): 3080 nM | TGI (A549 NSCLC): > 100000 nM | GI50 (HCT-15 colon): 1840 nM | TGI (HCT-15 colon): 3690 nM | GI50 (SF-268 CNS): 2340 nM | TGI (SF-268 CNS): 6350 nM | GI50 (OVCAR-5 ovarian): 1760 nM | TGI (OVCAR-5 ovarian): 3340 nM | GI50 (MCF7 breast): 1950 nM | TGI (MCF7 breast): 4000 nM
